Experimental findings from patent US11066396B2 (priority 2016, dated 2021) are described below.

One assay deals with HDAC8 (Homo sapiens (Human), UniProt Q9BY41). To be noted: read-out: HDAC8 IC50.
The next assay has as its target HDAC1 (Homo sapiens (Human), UniProt Q13547). Conditions: read-out: HDAC1 IC50.

Molecules are shown by their SMILES.

Chain of HDAC1 (Q13547 whole entry): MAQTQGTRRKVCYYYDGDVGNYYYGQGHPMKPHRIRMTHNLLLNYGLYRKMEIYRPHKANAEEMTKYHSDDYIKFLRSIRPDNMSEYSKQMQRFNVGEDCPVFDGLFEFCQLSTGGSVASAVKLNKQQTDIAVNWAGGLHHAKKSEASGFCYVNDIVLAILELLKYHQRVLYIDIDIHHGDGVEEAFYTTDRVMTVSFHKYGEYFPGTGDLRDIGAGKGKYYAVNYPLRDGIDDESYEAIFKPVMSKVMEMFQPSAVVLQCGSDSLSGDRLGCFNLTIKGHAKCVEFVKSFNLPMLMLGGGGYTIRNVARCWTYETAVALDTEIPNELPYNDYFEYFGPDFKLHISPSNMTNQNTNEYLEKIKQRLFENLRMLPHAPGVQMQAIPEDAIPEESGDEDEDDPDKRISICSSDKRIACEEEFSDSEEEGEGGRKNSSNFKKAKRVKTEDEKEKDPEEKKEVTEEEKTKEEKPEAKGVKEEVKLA
Chain of HDAC8 (Q9BY41 whole entry): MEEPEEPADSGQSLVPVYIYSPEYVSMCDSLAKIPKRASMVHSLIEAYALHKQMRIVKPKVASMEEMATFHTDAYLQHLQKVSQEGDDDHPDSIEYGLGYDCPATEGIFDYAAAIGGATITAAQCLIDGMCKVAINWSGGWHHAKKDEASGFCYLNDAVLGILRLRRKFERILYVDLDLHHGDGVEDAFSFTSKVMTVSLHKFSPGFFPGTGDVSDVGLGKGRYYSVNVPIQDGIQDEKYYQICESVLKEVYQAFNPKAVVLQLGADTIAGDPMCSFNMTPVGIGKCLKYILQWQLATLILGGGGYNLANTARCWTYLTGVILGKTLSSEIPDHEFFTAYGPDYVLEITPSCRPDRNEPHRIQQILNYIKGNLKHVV

Turning to `FC(F)(F)c1nc(-c2ccc(CNc3ccc4ccncc4c3)nc2)no1` [Example 370, N-({5-[5-(trifluoromethyl)-1,2,4-oxadiazol-3-yl]pyridin-2-yl}methyl)isoquinolin-7-amine], the values for the IC50 at HDAC8 and at HDAC1 were 860 nM and 68 nM, respectively.

On to `O=C(NC1CC1)c1ccccc1NCc1ccc(-c2noc(C(F)(F)F)n2)cn1` [Example 446, N-cyclopropyl-2-[({5-[5-(trifluoromethyl)-1,2,4-oxadiazol-3-yl]pyridin-2-yl}methyl)amino]benzamide], for which the 50% inhibitory concentration (IC50) at HDAC8 was determined as 1600 nM; at HDAC1 it was 240 nM.

On to `O=C([C@@H]1CCC(=O)N1c1cc(F)c(-c2noc(C(F)(F)F)n2)cc1F)N1CCc2ccccc2C1` [Example 335, (5S)-1-{2,5-difluoro-4-[5-(trifluoromethyl)-1,2,4-oxadiazol-3-yl]phenyl}-5-(3,4-dihydroisoquinolin-2(1H)-ylcarbonyl)pyrrolidin-2-one], for which the IC50 at HDAC8 is 7400 nM; at HDAC1 it was 1200 nM.

`CC1(C)CC(C(=O)N(Cc2ccc(-c3noc(C(F)(F)F)n3)cn2)c2cccc(F)c2)CCO1` (racemic) [Example 63, N-(3-fluorophenyl)-2,2-dimethyl-N-((5-(5-(trifluoromethyl)-1,2,4-oxadiazol-3-yl)pyridin-2-yl)methyl)tetrahydro-2H-pyran-4-carboxamide]: the IC50 at HDAC8 is 1500 nM; on HDAC1, 260 nM.

Take `Fc1cccc(C2COCCN2c2ccc(-c3noc(C(F)(F)F)n3)cn2)c1` (racemic) [Example 137, 3-(3-fluorophenyl)-4-(5-(5-(trifluoromethyl)-1,2,4-oxadiazol-3-yl)pyridin-2-yl)morpholine]: the IC50 on HDAC8 stood at 2300 nM; at HDAC1, 440 nM.

With `Cc1nc2cc(F)ccc2n1Cc1ccc(-c2noc(C(F)(F)F)n2)cc1F` [Example 29, 3-(3-Fluoro-4-((5-fluoro-2-methyl-1H-benzo[d]imidazol-1-yl)methyl)phenyl)-5-(trifluoromethyl)-1,2,4-oxadiazole], the values for the IC50 on HDAC8 and at HDAC1 were 8200 nM and 1600 nM, respectively.

With `O=C(C1CCOCC1)N(Cc1ccc(-c2noc(C(F)(F)F)n2)cc1)c1cccc(C(F)(F)F)c1` [Example 85, N-(4-(5-(trifluoromethyl)-1,2,4-oxadiazol-3-yl)benzyl)-N-(3-(trifluoromethyl)phenyl)tetrahydro-2H-pyran-4-carboxamide], the IC50 turned out to be 2300 nM at HDAC8 and 1200 nM on HDAC1.

`FC(COc1cc(-c2noc(C(F)(F)F)n2)ccn1)CN1CCOCC1` (racemic) [Example 427, 4-[2-fluoro-3-({4-[5-(trifluoromethyl)-1,2,4-oxadiazol-3-yl]pyridin-2-yl}oxy)propyl]morpholine]: the IC50 at HDAC8 is 1000 nM; at HDAC1, 5100 nM.

Regarding `O=C(c1cncnc1)N(Cc1ccc(-c2noc(C(F)(F)F)n2)cc1)c1cccc(C(F)(F)F)c1` [Example 71, N-(4-(5-(trifluoromethyl)-1,2,4-oxadiazol-3-yl)benzyl)-N-(3-(trifluoromethyl)phenyl)pyrimidine-5-carboxamide], the IC50 was 2800 nM on HDAC8 and 670 nM at HDAC1.

In the case of `NC(=O)c1ccccc1NCc1ccc(-c2noc(C(F)(F)F)n2)cn1` [Example 174, 2-(((5-(5-(Trifluoromethyl)-1,2,4-oxadiazol-3-yl)pyridin-2-yl)methyl)amino)benzamide], the IC50 is 700 nM on HDAC8 and 300 nM at HDAC1.

With `Cc1nnc(CC(=O)N(Cc2ccc(-c3noc(C(F)(F)F)n3)cc2)c2cccc(C(F)(F)F)c2)n1C` [Example 75, 2-(4,5-dimethyl-4H-1,2,4-triazol-3-yl)-N-(4-(5-(trifluoromethyl)-1,2,4-oxadiazol-3-yl)benzyl)-N-(3-(trifluoromethyl)phenyl)acetamide], the IC50 on HDAC8 amounted to 2300 nM; on HDAC1 it was 860 nM.

Regarding `FC(F)(F)c1nc(-c2ccc(CNc3cnccn3)nc2)no1` [Example 368, N-({5-[5-(trifluoromethyl)-1,2,4-oxadiazol-3-yl]pyridin-2-yl}methyl)pyrazin-2-amine], the IC50 worked out at 890 nM on HDAC8 and 1000 nM at HDAC1.

Turning to `FC(F)(F)c1nc(-c2ccc(CNc3cc4ccccn4n3)nc2)no1` [Example 365, N-({5-[5-(trifluoromethyl)-1,2,4-oxadiazol-3-yl]pyridin-2-yl}methyl)pyrazolo[1,5-a]pyridin-2-amine], the figures for the IC50 on HDAC8 and on HDAC1 were 1800 nM and 1200 nM, respectively.

As to `FC(F)(F)c1nc(-c2ccc(N3CCOCC3c3cccnc3)nc2)no1` (centres unmarked) [Example 143, 3-(pyridin-3-yl)-4-(5-(5-(trifluoromethyl)-1,2,4-oxadiazol-3-yl)pyridin-2-yl)morpholine], the half-maximal inhibitory concentration (IC50) at HDAC8 amounted to 2800 nM; on HDAC1 it was 6200 nM.

For the compound `Cn1c([C@@H]2CCC(=O)N2c2ccc(-c3noc(C(F)(F)F)n3)cc2F)nc2ccccc21` [Example 107, (S)-1-(2-fluoro-4-(5-(trifluoromethyl)-1,2,4-oxadiazol-3-yl)phenyl)-5-(1-methyl-1H-benzo[d]imidazol-2-yl)pyrrolidin-2-one], the IC50 on HDAC8 is 2200 nM; at HDAC1 it was 300 nM.

With `O=C(Nc1ccccc1)c1ccccc1NCc1ccc(-c2noc(C(F)(F)F)n2)cn1` [Example 447, N-phenyl-2-[({5-[5-(trifluoromethyl)-1,2,4-oxadiazol-3-yl]pyridin-2-yl}methyl)amino]benzamide], the IC50 on HDAC8 stood at 740 nM; at HDAC1 it was 970 nM.

For the compound `Cn1ncc(NCc2ccc(-c3noc(C(F)(F)F)n3)cn2)n1` [Example 366, 2-methyl-N-({5-[5-(trifluoromethyl)-1,2,4-oxadiazol-3-yl]pyridin-2-yl}methyl)-2H-1,2,3-triazol-4-amine], the IC50 on HDAC8 was 2700 nM; on HDAC1, 1300 nM.

As to `O=C1CC[C@@H](c2nc3ccccc3o2)N1c1ccc(-c2noc(C(F)(F)F)n2)cc1F` [Example 22, (S)-5-(Benzo[d]oxazol-2-yl)-1-(2-fluoro-4-(5-(trifluoromethyl)-1,2,4-oxadiazol-3-yl)phenyl)pyrrolidin-2-one], the results for the half-inhibitory concentration (IC50) at HDAC8 and on HDAC1 were 350 nM and 32 nM, respectively.

With `O=C1CC[C@@H](CO)N1c1ccc(-c2noc(C(F)(F)F)n2)c(F)c1` [Example 188, (S)-1-(3-Fluoro-4-(5-(trifluoromethyl)-1,2,4-oxadiazol-3-yl)phenyl)-5-(hydroxymethyl)pyrrolidin-2-one], the values for the IC50 on HDAC8 and at HDAC1 were 38 nM and 380 nM, respectively.

As to `O=C1CCC(NCc2ccc(-c3noc(C(F)(F)F)n3)cn2)c2ccccc2N1` (racemic) [Example 381, 5-[({5-[5-(trifluoromethyl)-1,2,4-oxadiazol-3-yl]pyridin-2-yl}methyl)amino]-1,3,4,5-tetrahydro-2H-1-benzazepin-2-one], the IC50 is 3900 nM on HDAC8 and 520 nM at HDAC1.

With `COCc1cc(=O)n(Cc2ccc(-c3noc(C(F)(F)F)n3)cn2)c2ccccc12` [Example 420, 4-(methoxymethyl)-1-({5-[5-(trifluoromethyl)-1,2,4-oxadiazol-3-yl]pyridin-2-yl}methyl)quinolin-2(1H)-one], the IC50 was 1000 nM on HDAC8 and 110 nM on HDAC1.

In the case of `FC(F)(F)c1nc(-c2ccc(CNc3ccccn3)cc2)no1` [Example 382, N-{4-[5-(trifluoromethyl)-1,2,4-oxadiazol-3-yl]benzyl}pyridin-2-amine], the results for the IC50 on HDAC8 and at HDAC1 were 2100 nM and 1600 nM, respectively.

Usually IC50 stands for the midpoint of a concentration-inhibition curve.
